According to patent US4956381A, “Treating tissue calcium depletion or degenerative processes in bone or cartilage” (Sandoz Ltd., priority 1987, dated 1990):

Legend:
beagle dogs = assay: Tolerability / pilot toxicology in beagle dogs; assay type: in vivo; details: 150 and 200 mg/kg p.o., gelatine capsules over 5 weeks, olive oil week 6 to 8; substantially pure Z-isomeric form
recombinant human IL-1 = assay: Recombinant human IL-1 induced mouse thymocyte proliferation; assay type: cell-based; details: 75 ng/ml rh IL-1
Protocol: (§1) Lymphocyte proliferation is the standard test for monokine activity. It is highly sensitive, though relatively unspecific, with IL-2, phorbol myristate acetate, concanavalin A' g-type-prostaglandin and indomethacin-nall effecting disturbance. Human monocyte culture media are prepared as described under I.I.b. above, diluted 1:10, 1:20 and 1:40 (v:v), and added to […] (obtained from C3H/HeJ mice) Dulbecco's modified Eagle's medium, containing 20 mM hydroxyethyl-piperazin-ethane-sulfonic acid, 12 mM NaHCO3, 2 mM glutamine, 2% foetal bovine serum, 10 μM 2-mercaptoethanol, […] and antibiotics. The cells are incubated for 2 days in 96-well culture plates and the proliferation rate determined using a ^3 H-thymidine pulse (1 μC/well) during the final 6 hours. The incorporated radioactivity is collected on filter paper and counted. […] Thus determined ED50 s for the compounds D2 and K1 each in substantially pure Z-isomeric form in a series of 2 separate experiments each with 3 parallel determinations are of the order of 30 μM
(§2) In order to rule out an antagonistic effect or a direct influence of the COMPOUNDS OF THE INVENTION on the proliferation of mouse thymocytes which are used above in the LAF-test, the effect of the COMPOUNDS OF THE INVENTION on the incorporation of ^3 H-thymidine Is determined after thymocyte stimulation with recombinant human IL-1 or IL-2.

pulmonary fibrosis = assay: Pulmonary fibrosis (bleomycin induced); assay type: in vivo, New Zealand white rabbits; details: ca. 2.5 to 60 mg/kg/day p.o.; substantially pure Z-isomeric form; vs placebo
Protocol: Testing is carried out in accordance with the general methodology described by G. J. Laurent et al. in Eur. J. Clin. Invest. (1981) 11, 441-448. Pulmonary fibrosis is induced in groups of 4 New Zealand white rabbits (aged 127 days at commencement of the experiment), each weighing 2.0-2.5 kg, by intratracheal instillation of 10 mg/kg bleomycin. The lungs of test animals are examined 2, 4 and 8 weeks later.

[1] = system: psoriatic arthritis or seronegative spondylarthrosis or osteoarthrosis; assay: Clinical trial IV: degenerative joint disease; assay type: in vivo, human; details: ca. 200 to 1200 mg p.o./day, 8 weeks
Protocol: COMPOUND OF THE INVENTION, e.g. compound D2 or K1 in substantially pure Z-isomeric form, is administered at dosages of from ca. 200 to 1200 mg/p.o./day, once or in divided dosages up to 4×daily for 8 weeks. The subjects are examined at a regular interval of 2 weeks for disease progression on parameters such as pain sensation at the joints, evaluation of the functional capacity according to Steinbrocker, hand grip strength or Richtie Index.

IL-1 = IL-1 induced secretion of metalloproteinase (MP) in chondrocytes; assay type: cell-based; details: 2 days incubation
Protocol: Furthermore the influence on IL-1 induced secretion of MP is determined using chondrocytes as a target system for IL-1. IL-1 (Genzyme Corporation,USA) is added with or without a COMPOUND OF THE INVENTION or Dexamethasone (control) to chondrocytes and the activity or metalloproteinase is determined in the supernatant media of 2 days incubation period.

IL-1β = assay: RIA-Kit IL-1 quantification in human monocyte cultures; assay type: cell-based
Protocol: (§3) Mononuclear cells are obtained from the blood of healthy volunteers via centrifugation and cultivated on tissue culture dishes with test compound at varying concentrations [Schnyder et al., J. Immunol., 138, 496-503 (1987)]. The non-adherent lymphocytes are removed after 4 hours by washing several times. Fresh medium, test compound and lipopolysaccharide (LPS) as stimulant are added and the monocytes incubated for further 19 hours. The pooled culture media are diluted 1:10 (v:v) with fresh medium and added to confluent rabbit chondrocytes. MP activity in the chondrocyte culture medium is assayed after a further 2 days. COMPOUNDS OF THE INVENTION, in particular compounds D2 and K1, are active in suppressing monokine release in the above test method at concentrations of the order of from about 30 to about 100 μM. Thus determined ED50 S for the compounds D2 and K1 each in substantially pure Z-isomeric form in a series of 3 or 7 separate experiments each with 3 parallel determinations are, for both compounds, of the order of 60 to 100 μM.
The procedures of example 1.1.b. above are repeated and IL-1 concentrations in recovered, undiluted culture medium determined employing a CISTRON IL-1 radioimmuno assay kit (the CISTRON kit is obtainable from Cistron, 10, Bloomfield Avenue, P.O. Box 2004, Pine Brook, NJ 07 058 USA. It is IL-1β specific and recognises both intra- and extra-cellular material).

periodontal disease = assay: Clinical trial III: calcium resorption - periodontal disease; assay type: in vivo, human; details: ca. 400 to 1200 mg p.o./day or injection ca. 0.5 or 1.0 to 5.0 mg per gum pouch; after ca. 2 to 3 weeks
Protocol: COMPOUND OF THE INVENTION, e.g. compound D2 or K1 in substantially pure Z-isomeric form, is administered at dosages of from ca. 400 to 1200 mg/p.o./day administered once or in divided dosages up to 4x daily, or by injection into the gum at the site of disease at dosages of the order of about 0.5 or 1.0 to about 5.0 mg into each gum pouch. The subjects are examined at regular weekly or 2x weekly intervals for disease progression.

human monocytes = assay: LAF-test (thymocyte proliferation), monokine production by human monocytes; assay type: cell-based; details: Monocyte, substantially pure Z-isomeric form, 2 separate experiments, 3 parallel determinations, read-out: ED50 (inhibition of monokine production)
Protocol: as §3
Lymphocyte proliferation is the standard test for monokine activity. […] The cells are incubated for 2 days in 96-well culture plates and the proliferation rate determined using a ^3 H-thymidine pulse (1 μC/well) during the final 6 hours. The incorporated radioactivity is collected on filter paper and counted. […]

recombinant human IL-2 = assay: Recombinant human IL-2 induced mouse thymocyte proliferation; assay type: cell-based; details: 10 ng/ml rh IL-2
Protocol: as §1, §2

[2] = 3H-thymidine incorporation, mouse thymocytes
[3] = CISTRON IL-1 radioimmuno assay, human monocytes

For COC1=Cc2ccccc2/C(=C/C(=O)O)c2cc(Cl)sc21 [Compound K1, [2-Chloro-10-methoxy-4H-benzo[4,5]cyclohepta[1,2-b]thiophen-4-ylidene]-acetic acid], the pathological effects (beagle dogs) was “no pathological effects are observed”, the “concentration dependency of influence on rh IL-1 induced proliferation” value (recombinant human IL-1) was “no concentration dependency is detectable” and the “influence on recombinant human IL-1 induced proliferation” value (recombinant human IL-1; [2]) was “no significant influence”. For the same compound, the pulmonary fibrosis (pulmonary fibrosis) was “substantial reduction of pulmonary fibrosis”, the “condition (degenerative joint disease)” value [1] was “improvement in condition after the 8 week treatment period” and the “influence on IL-1 induced secretion of MP” value (IL-1) was “do not influence the IL-1 induced secretion of MP”. The “extra-cellular IL-1 level” value (IL-1β; [3]) was “extra-cellular content is reduced significantly”, the “intracellular IL-1 level” value (IL-1β; [3]) was “remain substantially unaffected” and the IC50 (IL-1β; Homo sapiens, Monocyte, 19 h, substantially pure Z-isomeric form, 2-8 experiments, 3 parallel determinations, read-out: ED50 for extra-cellular IL-1 level suppression) was about 25 µM. The “condition (periodontal disease)” value (periodontal disease) was “marked improvement in condition after ca. 2 to 3 weeks continuous therapy”, the IC50 (human monocytes) was about 30 µM and the “concentration dependency of influence on rh IL-2 induced proliferation” value (recombinant human IL-2) was “no concentration dependency is detectable”. The “influence on recombinant human IL-2 induced proliferation” value (recombinant human IL-2; [2]) was “no significant influence”.
